Read-outs that look alike come from different tables or passages of the source.
How the values were obtained:
[1] = test system: oxazolone-induced skin inflammation of Balb/C mouse ears; test: mouse skin inflammatory model induced by oxazolone (ear thickness); assay type: in vivo; conditions: 20 ul of 0.1% compound topical on ear, 36 hours after oxazolone
Procedure, shortened: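 Oxazolone was used to induce skin inflammation in the ears of 8-week-old Balb/C mice. Ear thickness was measured by caliper before induction, again at 36 h to capture inflammatory swelling, and averaged per group (n=4).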

mouse skin fibroblast = test: inhibition of migration of activated fibroblast (scratch wound); assay type: cell-based; conditions: 0.5 uM compound, 10 ng/ml TGF-β1, 24 hours, read-out: Inhibition (%) of migration of activated fibroblast
Procedure, shortened: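 Scratch wound was made on a fibroblast monolayer, then cells were kept in DMEM with 10 ng/ml TGF-β1 at 37° C for 24 hours. After formalin fixation and crystal violet staining, cells that had moved into the wound were counted at 100× in five random fields and averaged.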

Lyn tyrosine kinase = Lyn tyrosine kinase (Homo sapiens (Human), UniProt P07948); test: in vitro Lyn tyrosine kinase inhibition; assay type: biochemical; conditions: 1 uM compound; read-out: % inhibition against Lyn
DDR2 tyrosine kinase = DDR2 tyrosine kinase (Homo sapiens (Human), UniProt Q16832); test: in vitro DDR2 tyrosine kinase inhibition (GST-fused kinase domain); assay type: biochemical; conditions: 1 uM compound; read-out: % inhibition against DDR2
Fgr tyrosine kinase = Fgr tyrosine kinase (Homo sapiens (Human), UniProt P09769); test: in vitro Fgr tyrosine kinase inhibition; assay type: biochemical; conditions: 1 uM compound; read-out: % inhibition against Fgr
[2] = test system: NO synthesis in J744A.1 macrophage; test: inhibition of nitric oxide (NO) synthesis in LPS-activated macrophages (Griess reagent); assay type: cell-based; conditions: read-out: Inhibition (%) of NO synthesis
[3] = test system: α-smooth muscle actin protein expression in skin fibroblast cells; test: inhibition of α-smooth muscle actin expression in fibroblast activated by type I collagen and TGF-β1 (western blotting); assay type: cell-based, Balb/C mouse; conditions: Mus musculus, 0.5 uM compound, 10 ng/ml TGF-β1, 48 hours, type I collagen, read-out: Inhibition (%) of α-smooth muscle actin increase
Procedure, shortened: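 α-Smooth muscle actin protein was detected by western blotting with chemiluminescence on X-ray film. Levels were quantified by densitometry of the band.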

DDR1 tyrosine kinase = DDR1 tyrosine kinase (Homo sapiens (Human), UniProt Q08345); test: in vitro DDR1 tyrosine kinase inhibition (GST-fused kinase domain); assay type: biochemical; conditions: 1 uM compound; read-out: % inhibition against DDR1
Hck tyrosine kinase = Hck tyrosine kinase (Homo sapiens (Human), UniProt P08631); test: in vitro Hck tyrosine kinase inhibition; assay type: biochemical; conditions: 1 uM compound; read-out: % inhibition against Hck
c-Src tyrosine kinase = c-Src tyrosine kinase (Homo sapiens (Human), UniProt P12931); test: in vitro c-Src tyrosine kinase inhibition (32P-ATP, poly(D4Y)n substrate); assay type: biochemical; conditions: 1 uM compound; read-out: % inhibition against c-Src
[4] = test system: TNF-α synthesis in J744A.1 macrophages; test: inhibition of TNF-α synthesis in LPS-activated macrophages (ELISA); assay type: cell-based; conditions: Macrophage, read-out: Inhibition (%) of TNF-α synthesis
[5] = 10 μM compound, 100 ng/ml LPS, 6 hours

Sequence of c-Src tyrosine kinase (P12931 whole entry, looked up): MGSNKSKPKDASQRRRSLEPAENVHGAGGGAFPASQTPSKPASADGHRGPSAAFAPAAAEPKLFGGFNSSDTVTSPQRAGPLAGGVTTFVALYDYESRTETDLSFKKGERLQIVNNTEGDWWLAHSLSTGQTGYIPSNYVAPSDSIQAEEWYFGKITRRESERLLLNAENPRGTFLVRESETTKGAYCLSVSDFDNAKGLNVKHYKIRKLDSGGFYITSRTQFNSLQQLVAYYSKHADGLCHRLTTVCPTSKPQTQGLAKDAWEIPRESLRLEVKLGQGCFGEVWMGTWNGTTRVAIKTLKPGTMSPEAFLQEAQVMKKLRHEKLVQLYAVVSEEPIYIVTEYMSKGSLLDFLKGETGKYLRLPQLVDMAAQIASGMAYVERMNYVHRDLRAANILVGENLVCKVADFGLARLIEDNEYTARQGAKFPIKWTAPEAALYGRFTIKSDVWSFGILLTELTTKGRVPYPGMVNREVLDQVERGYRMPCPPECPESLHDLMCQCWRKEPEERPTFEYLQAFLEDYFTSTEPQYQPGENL
Sequence of Lyn tyrosine kinase (P07948 whole entry, the tested form may be a part): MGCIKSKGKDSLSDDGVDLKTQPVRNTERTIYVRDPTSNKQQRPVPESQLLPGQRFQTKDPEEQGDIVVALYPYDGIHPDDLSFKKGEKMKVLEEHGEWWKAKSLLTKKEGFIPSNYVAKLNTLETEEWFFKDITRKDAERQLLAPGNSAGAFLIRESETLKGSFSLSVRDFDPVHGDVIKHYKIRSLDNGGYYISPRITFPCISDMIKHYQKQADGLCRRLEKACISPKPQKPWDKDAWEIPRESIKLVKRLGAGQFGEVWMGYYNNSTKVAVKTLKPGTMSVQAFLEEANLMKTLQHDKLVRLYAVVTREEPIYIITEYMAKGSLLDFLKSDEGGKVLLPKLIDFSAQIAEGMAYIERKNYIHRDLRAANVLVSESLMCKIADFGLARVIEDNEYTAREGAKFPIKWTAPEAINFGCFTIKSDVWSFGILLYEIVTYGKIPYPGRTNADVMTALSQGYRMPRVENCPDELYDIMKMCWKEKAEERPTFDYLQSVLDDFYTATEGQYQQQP
Sequence of Fgr tyrosine kinase (P09769 whole entry): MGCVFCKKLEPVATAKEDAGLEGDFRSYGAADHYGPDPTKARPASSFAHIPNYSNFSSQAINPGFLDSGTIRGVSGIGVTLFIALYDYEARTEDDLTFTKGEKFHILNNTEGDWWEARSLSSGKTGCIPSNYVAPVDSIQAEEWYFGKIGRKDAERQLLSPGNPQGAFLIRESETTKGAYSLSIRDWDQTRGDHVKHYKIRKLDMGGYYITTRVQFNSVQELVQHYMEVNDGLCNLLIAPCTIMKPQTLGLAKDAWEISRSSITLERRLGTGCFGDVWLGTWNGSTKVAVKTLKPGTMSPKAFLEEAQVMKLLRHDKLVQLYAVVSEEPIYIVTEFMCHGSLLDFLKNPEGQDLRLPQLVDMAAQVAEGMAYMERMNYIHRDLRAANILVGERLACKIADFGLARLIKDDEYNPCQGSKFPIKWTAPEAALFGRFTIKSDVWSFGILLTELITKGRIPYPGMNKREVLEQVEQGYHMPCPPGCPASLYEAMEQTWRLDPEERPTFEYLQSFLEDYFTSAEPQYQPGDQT
Sequence of DDR2 tyrosine kinase (Q16832 563-849): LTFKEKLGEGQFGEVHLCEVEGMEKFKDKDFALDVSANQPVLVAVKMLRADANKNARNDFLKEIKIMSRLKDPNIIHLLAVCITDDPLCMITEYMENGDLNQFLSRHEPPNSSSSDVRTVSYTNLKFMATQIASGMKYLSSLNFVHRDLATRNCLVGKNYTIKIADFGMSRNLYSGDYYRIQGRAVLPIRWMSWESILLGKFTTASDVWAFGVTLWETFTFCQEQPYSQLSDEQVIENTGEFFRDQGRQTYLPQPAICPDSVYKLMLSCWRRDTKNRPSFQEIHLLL
Sequence of DDR1 tyrosine kinase (Q08345 610-905): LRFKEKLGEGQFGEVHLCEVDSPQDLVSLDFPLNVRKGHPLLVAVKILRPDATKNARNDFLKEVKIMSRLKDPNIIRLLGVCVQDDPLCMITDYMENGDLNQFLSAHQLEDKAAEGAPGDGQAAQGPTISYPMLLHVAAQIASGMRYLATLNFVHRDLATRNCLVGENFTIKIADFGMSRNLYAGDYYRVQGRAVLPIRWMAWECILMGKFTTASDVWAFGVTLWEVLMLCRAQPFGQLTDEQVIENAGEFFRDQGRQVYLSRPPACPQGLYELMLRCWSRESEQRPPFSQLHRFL
Sequence of Hck tyrosine kinase (P08631 whole entry): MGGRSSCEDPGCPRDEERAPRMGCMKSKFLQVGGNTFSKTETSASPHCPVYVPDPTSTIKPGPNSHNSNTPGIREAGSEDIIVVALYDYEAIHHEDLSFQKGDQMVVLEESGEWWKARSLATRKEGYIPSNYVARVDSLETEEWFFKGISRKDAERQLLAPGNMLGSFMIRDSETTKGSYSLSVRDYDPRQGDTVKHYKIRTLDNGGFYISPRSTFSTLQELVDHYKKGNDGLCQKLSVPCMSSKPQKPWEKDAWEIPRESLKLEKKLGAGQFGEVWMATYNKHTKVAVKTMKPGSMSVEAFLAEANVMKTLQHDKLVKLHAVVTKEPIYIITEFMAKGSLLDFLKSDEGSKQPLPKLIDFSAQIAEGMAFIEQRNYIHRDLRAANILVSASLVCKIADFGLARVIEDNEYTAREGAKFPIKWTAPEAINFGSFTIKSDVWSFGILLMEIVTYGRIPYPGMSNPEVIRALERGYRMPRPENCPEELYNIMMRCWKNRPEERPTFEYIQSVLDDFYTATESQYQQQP

Cl.Oc1cccc(Nc2ncnc3cc(-c4cccc(CN5CCOCC5)c4)sc23)c1 [LCB 03-0066, 3-(6-(3-(morpholinomethyl)phenyl)thieno[3,2-d]pyrimidin-4-ylamino)phenol]
Inhibition (%) of increase of ear thickness [1]: 67% | inhibition at 0.5 µM (mouse skin fibroblast): 54% | inhibition at 1 µM (Lyn tyrosine kinase): > 80% | inhibition at 1 µM (DDR2 tyrosine kinase): > 80% | inhibition at 1 µM (Fgr tyrosine kinase): > 80% | inhibition at 10 µM ([2]; 10 μM compound, LPS, 24 hours): 87% | inhibition at 0.5 µM [3]: 75% | inhibition at 1 µM (DDR1 tyrosine kinase): > 80% | inhibition at 1 µM (Hck tyrosine kinase): > 80% | inhibition at 1 µM (c-Src tyrosine kinase): > 80% | inhibition at 10 µM [4, 5]: 93%

Cl.Oc1cccc(Nc2ncnc3cc(-c4cccc(CN5CCNCC5)c4)sc23)c1 [LCB 03-0064, 3-(6-(3-(piperazin-1-ylmethyl)phenyl)thieno[3,2-d]pyrimidin-4-ylamino)phenol]
Inhibition (%) of increase of ear thickness [1]: 63% | inhibition at 0.5 µM (mouse skin fibroblast): 41% | inhibition at 1 µM (Lyn tyrosine kinase): > 80% | inhibition at 1 µM (DDR2 tyrosine kinase): > 80% | inhibition at 1 µM (Fgr tyrosine kinase): > 80% | inhibition at 10 µM ([2]; 10 μM compound, LPS, 24 hours): 79% | inhibition at 0.5 µM [3]: 66% | inhibition at 1 µM (DDR1 tyrosine kinase): > 80% | inhibition at 1 µM (Hck tyrosine kinase): > 80% | inhibition at 1 µM (c-Src tyrosine kinase): > 80% | inhibition at 10 µM [4, 5]: 73%

CC(C)CNCc1cccc(-c2cc3ncnc(Nc4cccc(O)c4)c3s2)c1.Cl [LCB 03-0067, 3-(6-(3-((isobutylamino)methyl)phenyl)thieno[3,2-d]pyrimidin-4-ylamino)phenol]
Inhibition (%) of increase of ear thickness [1]: 54% | inhibition at 0.5 µM (mouse skin fibroblast): 33% | inhibition at 1 µM (Lyn tyrosine kinase): > 80% | inhibition at 1 µM (DDR2 tyrosine kinase): > 80% | inhibition at 1 µM (Fgr tyrosine kinase): > 80% | inhibition at 10 µM ([2]; 10 μM compound, LPS, 24 hours): 85% | inhibition at 0.5 µM [3]: 49% | inhibition at 1 µM (DDR1 tyrosine kinase): > 80% | inhibition at 1 µM (Hck tyrosine kinase): > 80% | inhibition at 1 µM (c-Src tyrosine kinase): > 80% | inhibition at 10 µM [4, 5]: 83%

CN1CCN(Cc2ccc(-c3cc4ncnc(Nc5cccc(O)c5)c4s3)o2)CC1 [LCB 03-0087, 3-(6-(5-((4-methylpiperazin-1-yl)methyl)furan-2-yl)thieno[3,2-d]pyrimidin-4-ylamino)phenol]
Inhibition (%) of increase of ear thickness [1]: 43% | inhibition at 0.5 µM (mouse skin fibroblast): 24% | inhibition at 1 µM (Lyn tyrosine kinase): > 70% | inhibition at 1 µM (DDR2 tyrosine kinase): > 70% | inhibition at 1 µM (Fgr tyrosine kinase): > 70% | inhibition at 10 µM ([2]; 24 h): 83% | inhibition at 0.5 µM [3]: 29% | inhibition at 1 µM (DDR1 tyrosine kinase): > 70% | inhibition at 1 µM (Hck tyrosine kinase): > 70% | inhibition at 1 µM (c-Src tyrosine kinase): > 70% | inhibition at 10 µM ([4]; 6 h): 68%

Cl.Oc1cccc(Nc2ncnc3cc(-c4cccc(CN5CCCC5)c4)sc23)c1 [LCB 03-0062, 3-(6-(3-(pyrrolidin-1-ylmethyl)phenyl)thieno[3,2-d]pyrimidin-4-ylamino)phenol]
Inhibition (%) of increase of ear thickness [1]: 57% | inhibition at 0.5 µM (mouse skin fibroblast): 41% | inhibition at 1 µM (Lyn tyrosine kinase): > 80% | inhibition at 1 µM (DDR2 tyrosine kinase): > 80% | inhibition at 1 µM (Fgr tyrosine kinase): > 80% | inhibition at 10 µM ([2]; 10 μM compound, LPS, 24 hours): 93% | inhibition at 0.5 µM [3]: 64% | inhibition at 1 µM (DDR1 tyrosine kinase): > 80% | inhibition at 1 µM (Hck tyrosine kinase): > 80% | inhibition at 1 µM (c-Src tyrosine kinase): > 80% | inhibition at 10 µM [4, 5]: 82%

Oc1cccc(Nc2ncnc3cc(-c4ccc(CNC5CC5)cc4)sc23)c1 [LCB 03-0040]
Inhibition (%) of increase of ear thickness [1]: 31% | inhibition at 0.5 µM (mouse skin fibroblast): 43% | inhibition at 1 µM (Lyn tyrosine kinase): > 80% | inhibition at 1 µM (DDR2 tyrosine kinase): > 80% | inhibition at 1 µM (Fgr tyrosine kinase): > 80% | inhibition at 10 µM ([2]; 10 μM compound, LPS, 24 hours): 93% | inhibition at 0.5 µM [3]: 55% | inhibition at 1 µM (DDR1 tyrosine kinase): > 80% | inhibition at 1 µM (Hck tyrosine kinase): > 80% | inhibition at 1 µM (c-Src tyrosine kinase): > 80% | inhibition at 10 µM [4, 5]: 84%

Oc1cccc(Nc2ncnc3cc(-c4cccc(CCN5CCNCC5)c4)sc23)c1 [LCB 03-0079, 3-(6-(3-(2-(piperazin-1-yl)ethyl)phenyl)thieno[3,2-d]pyrimidin-4-ylamino)phenol]
Inhibition (%) of increase of ear thickness [1]: 51% | inhibition at 0.5 µM (mouse skin fibroblast): 41% | inhibition at 1 µM (Lyn tyrosine kinase): > 80% | inhibition at 1 µM (DDR2 tyrosine kinase): > 80% | inhibition at 1 µM (Fgr tyrosine kinase): > 80% | inhibition at 10 µM ([2]; 10 μM compound, LPS, 24 hours): 74% | inhibition at 0.5 µM [3]: 61% | inhibition at 1 µM (DDR1 tyrosine kinase): > 80% | inhibition at 1 µM (Hck tyrosine kinase): > 80% | inhibition at 1 µM (c-Src tyrosine kinase): > 80% | inhibition at 10 µM [4, 5]: 67%
